In US8961930B2, “Isatin derivatives for use as in vivo imaging agents” (Imperial Innovations Limited, priority 2008, dated 2015):

Tests used:
caspase 3 = target: T1, caspase 3 (Homo sapiens, UniProt P42574); assay: Fluorimetric in vitro caspase inhibition assay (7-AMC), caspase 3; type: biochemical; parameters: purchased Biomol International, UK; conditions: for EC50: recombinant human caspase 3, 10 μM Ac-DEVD-AMC; for increase in potency as compared to known benzyl derivative 15: caspase 3, versus compound 15
T1 sequence (P42574 29-175 limits assumed): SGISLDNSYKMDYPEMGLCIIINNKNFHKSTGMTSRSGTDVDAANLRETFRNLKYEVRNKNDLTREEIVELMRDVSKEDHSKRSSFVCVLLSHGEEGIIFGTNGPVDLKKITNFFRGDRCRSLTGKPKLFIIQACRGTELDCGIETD
T1 sequence (P42574 176-277 limits assumed): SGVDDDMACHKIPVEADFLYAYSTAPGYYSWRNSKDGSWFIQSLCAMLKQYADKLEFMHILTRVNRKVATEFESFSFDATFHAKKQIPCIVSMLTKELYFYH
Description: Recombinant human caspases-1, -3, -6, -7, and -8 and their peptide-specific substrates were purchased from Biomol International, UK Inhibition of the recombinant caspases by non-radioactive isatins was assessed using a fluorometric assay that measures the accumulation of a fluorogenic product, 7-amino-4-methylcoumarin (7-AMC). All assays were performed in 96-well plates at a volume of 200 μl per well. The assays were performed at 37° C. in an appropriate reaction buffer as described below for each caspase. For caspase 1, the buffer comprised of 0.1% CHAPS, 100 mM NaCl, 5 mM 2-mercaptoethanol, 100 mM HEPES (pH 7.4), 2 mM EDTA, 10% sucrose, and 10 μM of the peptide substrate Ac-YVAD-AMC. For caspase 3: 20 mM HEPES (pH 7.4), 10% sucrose, 100 mM NaCl, 0.1% CHAPS, 2 m, mM EDTA, and 10 μM Ac-DEVD-AMC. For caspase 6: 20 mM HEPES (pH 7.4), 10% sucrose, 100 mM NaCl, 0.1% CHAPS, 2 mM EDTA, and 10 μM Ac-VEID-AMC. For caspase 7: 20 mM HEPES (pH 7.4), 10% sucrose, 5 mM 2-mercaptoethanol, 100 mM NaCl, 0.1% CHAPS, 2 mM EDTA, 10 μM Ac-DEVD-AMC. For caspase 8: 20 mM HEPES (pH 7.4), 10% sucrose, 100 mM NaCl, 0.1% CHAPS, 2 mM EDTA, and 10 μM Ac-IETD-AMC. The Buffers contained non-radioactive isatins in DMSO at a final concentration of 500, 50, 5 μM; 500, 50, 5 nM; 500, 50, 5 pM; the final concentration of DMSO in all wells was 5% of the total volume. Recombinant caspases were used at 0.5 units per assay (˜500 pmol substrate converted per h). All reagents except the peptide substrate were pre-incubated for 10 min. The peptide substrate (final concentration 10 μM) was then added and the plate was incubated for a further 30 min; 30 min was selected after initial linearity study where reaction was assessed after 10, 30, 60 or 90 min. The 30 min time point was selected. Respective control wells contained all reaction components without enzyme. The amount of 7-AMC produced was measured on a fluorescence microplate reader (Victor2; Perkin-Elmer Life sciences) at excitation and emission wavelengths of 355 nm and 460 nm, respectively. The concentration of isatin that inhibits the caspase activity by 50% (EC50) was estimated by non-linear regression analysis using GraphPad Prism (Version 4.0 for Windows, GraphPad Software, San Diego Calif. USA). All the isatins were analyzed in duplicate; the assays were repeated once.
The data are the average for two runs, each of which was duplicated, at nine concentrations ranging from 5 pM to 500 μM; the drug concentration required to inhibit each enzyme by 50% (EC50) was obtained from nonlinear regression analysis of the inhibition profiles.

[1] = In vitro mouse liver S9 metabolism studies; type: in vitro ADME; conditions: 60 min incubation, 37° C., HPLC
Description: Liver S9 metabolism studies were performed as described in Aboagye et al^19. Mouse livers were rapidly excised and kept at 4° C. throughout the experiment. Tissues were weighed and homogenized in an equivalent volume of 50 mM Tris-150 mM KCl-HCl buffer (pH 7.4) using an Ultra-Thurrax homogenizer (IKA, Staufen, Germany). To obtain the S9 fraction, the homogenate was centrifuged (10,000×g) for 30 min to remove nuclei, mitochondria and cell debris. Protein concentration of the S9 fraction was determined by a commercial BCA protein assay kit (Perbio Science, Cheshire, UK). S9 fractions were stored at −80° C. for up to 6 weeks. […]
Immediately prior to extraction the samples were thawed and placed on ice. For extraction, ice cold acetonitrile (1.5 mL) was added to plasma (0.2 mL); S9 incubation samples (3 mL) containing acetonitrile were also analysed. […] The samples (1 mL) were then analyzed by radio-HPLC on an Agilent 1100 series HPLC system (Agilent Technologies, Stockport, UK) equipped with a γ-RAM Model 3 gamma-detector and the Laura software (IN/US Systems inc., Florida, USA).
The stationary phase comprised of a Waters μBondapak C18 reverse-phase column (300×7.8 mm). For analysis of [^125I]14, plasma and liver samples were processed as above and analyzed by using a mobile phase comprising of water (0.1% TFA)/propan-1-ol (0.1% TFA) (35:65) running in isocratic mode at a flowrate of 2 mL/min. […]

Row | EC50 (caspase 3) | SMILES | also measured
1 | 41.8 nM | O=C1C(=O)N(Cc2ccccc2)c2ccc(S(=O)(=O)N3CCC[C@H]3COc3ccccc3)cc21 [Compound 13, (S)-1-benzyl-5-(2-phenoxymethyl-pyrrolidine-1-sulfonyl)isatin, reference compound] | 
2 | 50.5 nM | O=C1C(=O)N(Cc2ccc(F)cc2)c2ccc(S(=O)(=O)N3CCC[C@H]3COc3ccccc3)cc21 [Compound 15, (S)-1-(4-fluorobenzyl)-5-(2-phenoxymethyl-pyrrolidine-1-sulfonyl)isatin, reference compound] | degradation in mouse liver S9 fraction [1]: near complete degradation
3 | 200 nM | O=C1C(=O)N(Cc2ccc(F)cc2)c2ccc(S(=O)(=O)N3CCCC3)cc21 [Compound 16, 1-(4-Fluorobenzyl)-5-(pyrrolidine-1-sulfonyl)isatin, reference compound] | 
4 | 26.1 nM | O=C1C(=O)N(Cc2ccc(F)cc2)c2ccc(S(=O)(=O)N3CCC[C@H]3COc3ccc(F)cc3)cc21 [Compound 22, (S)-1-(4-Fluorobenzyl)-5-(2-(4-fluorophenoxymethyl)-pyrrolidine-1-sulfonyl)isatin] | 
5 | 50.1 nM | C#CCN1C(=O)C(=O)c2cc(S(=O)(=O)N3CCC[C@H]3COc3ccc(F)cc3F)ccc21 [Compound 25, (S)-1-(2-Propynyl)-5-(2-(2,4-difluorophenoxymethyl)-pyrrolidine-1-sulfonyl)isatin] | 

The remaining lines, values behind:

Row | SMILES | EC50 (caspase 3) | also measured
6 | O=C1C(=O)N(Cc2ccc(F)cc2)c2ccc(S(=O)(=O)N3CCC[C@H]3COc3cccc(F)c3)cc21 [Compound 1, (S)-1-(4-Fluorobenzyl)-5-(2-(3-fluorophenoxymethyl)-pyrrolidine-1-sulfonyl)isatin] | 17 nM | increase of affinity for caspase 3 as compared with compound 14 (caspase 3; versus known compound 14): two- to three-fold
7 | O=C1C(=O)N(Cc2ccc(F)cc2)c2ccc(S(=O)(=O)N3CCC[C@H]3COc3ccc(F)cc3F)cc21 [Compound 2, (S)-1-(4-Fluorobenzyl)-5-(2-(2,4-difluorophenoxymethyl)-pyrrolidine-1-sulfonyl)isatin] | 12.4 nM | 
8 | O=C1C(=O)N(Cc2ccc(F)cc2)c2ccc(S(=O)(=O)N3CCC[C@H]3COC3CCOCC3)cc21 [Compound 4, (S)-1-(4-Fluorobenzyl)-5-(2-(tetrahydro-2H-pyran-4-yloxymethyl)-pyrrolidine-1-sulfonyl)isatin] | 10.7 nM | increase in potency as compared to known benzyl derivative 15 (caspase 3): five-fold
9 | O=C1C(=O)N(Cc2ccc(F)cc2)c2ccc(S(=O)(=O)N3CCC[C@H]3COc3ccncn3)cc21 [Compound 5, (S)-1-(4-Fluorobenzyl)-5-(2-(pyrimidin-4-yloxymethyl)-pyrrolidine-1-sulfonyl)isatin] | 5.5 nM | 
10 | O=C1C(=O)N(Cc2cn(CCF)nn2)c2ccc(S(=O)(=O)N3CCC[C@H]3COc3ccccc3)cc21 [Compound 10, (S)-1-((1-(2-Fluoroethyl)-1H-[1,2,3]-triazol-4-yl)methyl)-5-(2-phenoxymethyl-pyrrolidine-1-sulfonyl)isatin] | 16.7 nM | increase in potency as compared to known benzyl derivative 15 (caspase 3): 4 fold
11 | O=C1C(=O)N(Cc2cn(CCF)nn2)c2ccc(S(=O)(=O)N3CCC[C@H]3COc3ccc(F)cc3F)cc21 [Compound 11, (S)-1-((1-(2-Fluoroethyl)-1H-[1,2,3]-triazol-4-yl)methyl)-5-(2(2,4-difluorophenoxymethyl)-pyrrolidine-1-sulfonyl)isatin] | 0.5 nM | 
12 | O=C1C(=O)N(Cc2ccc(I)cc2)c2ccc(S(=O)(=O)N3CCC[C@H]3COc3ccccc3)cc21 [Compound 14, (S)-1-(4-iodobenzyl)-5-(2-phenoxymethyl-pyrrolidine-1-sulfonyl)isatin, reference compound] |  | degradation in mouse liver S9 fraction [1]: near complete degradation
